Measured values taken from ChEMBL document CHEMBL4765243, “Discovery of Novel Bromophenol-Thiosemicarbazone Hybrids as Potent Selective Inhibitors of Poly(ADP-ribose) Polymerase-1 (PARP-1) for Use in Cancer” (J Med Chem, 2019).

Experiments:
[1] = Cytotoxicity against human HL7702 cells assessed as cell growth inhibition at 20 uM incubated for 48 hrs by MTT assay relative to control; format: cell-based; settings: HL7702 (L02) cells
SK-OV-3 = assay: Antiproliferative activity against human SK-OV-3 cells assessed as cell growth inhibition at 20 uM incubated for 48 hrs by MTT assay relative to control; format: functional
[2] = molecular target: Poly [ADP-ribose] polymerase 1 (Homo sapiens, UniProt P09874); settings: dose 100.0 nM, time 30.0 min
HepG2 = assay: Antiproliferative activity against human HepG2 cells assessed as cell growth inhibition at 20 uM incubated for 48 hrs by MTT assay relative to control; format: functional
Caco-2 = assay: Antiproliferative activity against human Caco-2 cells assessed as cell growth inhibition at 20 uM incubated for 48 hrs by MTT assay relative to control; format: functional
Bel-7402 = assay: Antiproliferative activity against human Bel-7402 cells assessed as cell growth inhibition at 20 uM incubated for 48 hrs by MTT assay relative to control; format: functional

Poly [ADP-ribose] polymerase 1, sequence (P09874 whole entry): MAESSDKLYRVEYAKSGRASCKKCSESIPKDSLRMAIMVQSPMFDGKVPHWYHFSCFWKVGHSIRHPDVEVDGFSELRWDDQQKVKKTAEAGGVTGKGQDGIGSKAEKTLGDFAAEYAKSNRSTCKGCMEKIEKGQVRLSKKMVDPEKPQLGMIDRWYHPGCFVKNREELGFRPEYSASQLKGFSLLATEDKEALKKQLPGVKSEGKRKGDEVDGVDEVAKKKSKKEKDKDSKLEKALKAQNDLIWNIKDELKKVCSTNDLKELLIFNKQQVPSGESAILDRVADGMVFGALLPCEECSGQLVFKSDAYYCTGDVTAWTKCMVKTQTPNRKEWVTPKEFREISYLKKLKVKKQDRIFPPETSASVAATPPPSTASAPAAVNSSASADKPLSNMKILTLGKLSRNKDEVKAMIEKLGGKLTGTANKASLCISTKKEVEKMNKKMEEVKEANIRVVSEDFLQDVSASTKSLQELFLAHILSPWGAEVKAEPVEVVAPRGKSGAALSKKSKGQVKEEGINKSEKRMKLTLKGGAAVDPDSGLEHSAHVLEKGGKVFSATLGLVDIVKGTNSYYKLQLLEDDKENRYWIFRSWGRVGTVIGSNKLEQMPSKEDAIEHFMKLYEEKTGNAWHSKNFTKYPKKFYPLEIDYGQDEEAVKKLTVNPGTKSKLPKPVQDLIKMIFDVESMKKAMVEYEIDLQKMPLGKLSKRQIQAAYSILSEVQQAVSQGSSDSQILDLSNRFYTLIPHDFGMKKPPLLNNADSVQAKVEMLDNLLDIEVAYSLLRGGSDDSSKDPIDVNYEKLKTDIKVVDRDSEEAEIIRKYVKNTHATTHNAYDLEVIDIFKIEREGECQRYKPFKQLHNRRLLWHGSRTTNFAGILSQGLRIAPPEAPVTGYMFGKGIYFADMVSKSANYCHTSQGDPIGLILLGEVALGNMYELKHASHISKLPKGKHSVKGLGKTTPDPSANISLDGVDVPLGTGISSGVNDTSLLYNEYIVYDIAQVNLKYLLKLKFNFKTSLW

| Structure (SMILES) | inhibition at 48 h, 20 µM [1] [%] | inhibition at 20 µM (SK-OV-3) [%] | inhibition [2] [%] | inhibition at 20 µM (HepG2) [%] | inhibition at 20 µM (Caco-2) [%] | inhibition at 20 µM (Bel-7402) [%] |
| --- | --- | --- | --- | --- | --- | --- |
| COc1cc(Br)c(/C=N/NC(N)=S)cc1OC | 42.5 | 20.8 | 42.6 | 37.6 | 8.65 | 18.3 |
| COc1ccc(/C=N/NC(N)=S)cc1O | – | – | 28.1 | – | – | – |
| COc1cc(/C=N/NC(=S)Nc2ccccc2)c(Br)c(Br)c1O | 27.8 | 65.5 | 12.5 | 57.1 | 34.9 | 39.5 |
| COc1cc(/C=N/NC(N)=S)cc(Br)c1OC | 2.11 | < 0 | 23.2 | 61.1 | 18.9 | 17.6 |
| CNC(=S)N/N=C/c1cc(Br)c(OC)c(OC)c1 | 44.3 | 32.9 | 44.1 | 57.2 | 43.8 | 29.6 |
| COc1cc(/C=N/NC(=S)Nc2ccc(F)cc2)c(Br)c(Br)c1OC | 85.1 | 66.3 | 46.6 | 60.5 | 24.5 | 54.6 |
| COc1cc(/C=N/NC(=S)Nc2cccc(C(F)(F)F)c2)c(Br)c(Br)c1OC | 71.1 | < 0 | 23 | 43.2 | 6.4 | 12.7 |
| COc1cc(/C=N/NC(=S)Nc2ccc(Oc3ccccc3)cc2)c(Br)c(Br)c1OC | < 0 | 15 | 23.7 | < 0 | < 0 | < 0 |
| COc1cc(/C=N/NC(=S)Nc2ccc(Oc3ccccc3)cc2)cc(Br)c1OC | 75.9 | 32.3 | 27.7 | < 0 | 76.3 | 33.8 |
| COc1cc(/C=N/NC(N)=S)ccc1O | – | – | 28 | – | – | – |
| COc1cc(/C=N/NC(N)=S)cc(Br)c1O | < 0 | 21.6 | 42.9 | 29.6 | 35.6 | 32.3 |
| COc1ccc(/C=N/NC(=S)Nc2ccccc2)c(Br)c1O | 46.9 | 62.1 | 42.9 | 65.6 | 82.4 | 36.4 |
| COc1ccc(/C=N/NC(N)=S)c(Br)c1O | 31.8 | 9.92 | 34.8 | 38.5 | 9.01 | 21.4 |
| COc1cc(/C=N/NC(=S)Nc2ccc(Cl)cc2)cc(Br)c1OC | 42.9 | 41.5 | 32.2 | 46.6 | 55.4 | 55.7 |
| COc1cc(Br)c(/C=N/NC(=S)Nc2ccccc2)cc1OC | 78.7 | 41.3 | 37 | 67 | 25.7 | 19.3 |
| COc1cc(/C=N/NC(=S)Nc2ccccc2)cc(Br)c1O | 40.7 | 56 | 35.5 | 62 | 62.9 | 25.3 |
| COc1cc(/C=N/NC(=S)Nc2ccccc2)cc(Br)c1OC | 72.1 | 55.5 | 18.2 | 40 | 67.1 | 75.2 |
| COc1ccc(/C=N/NC(=S)Nc2ccccc2)cc1O | 41.4 | 41.4 | 37.5 | 38 | 71.4 | 32.2 |
